Laboratory results published in ChEMBL document CHEMBL2440076, “New triarylpyrazoles as broad-spectrum anticancer agents: design, synthesis, and biological evaluation” (Eur J Med Chem, 2013).

How the values were obtained:
Assay type in all cases: functional
[1] = system: MDA-MB-435; assay: Growth inhibition of human MDA-MB-435 cells assessed as cell growth at 5X10'-9 M after 48 hrs by sulforhodamine B assay; conditions: MDA-MB-435, 48 h, read-out: Activity
[2] = system: HCT-116; assay: Growth inhibition of human HCT116 cells assessed as cell growth at 5X10'-8 M after 48 hrs by sulforhodamine B assay; conditions: HCT-116, 48 h, read-out: Activity
[3] = system: NCI-H522; assay: Growth inhibition of human NCI-H522 cells assessed as cell growth at 5X10'-8 M after 48 hrs by sulforhodamine B assay; conditions: NCI-H522, 48 h, read-out: Activity
[4] = system: M14; assay: Growth inhibition of human M14 cells assessed as cell growth at 5X10'-9 M after 48 hrs by sulforhodamine B assay; conditions: M14, 48 h, read-out: Activity
[5] = system: A549; assay: Growth inhibition of human A549/ATCC cells assessed as cell growth at 5X10'-6 M after 48 hrs by sulforhodamine B assay; conditions: A549, 48 h, read-out: Activity
[6] = system: HL-60(TB); assay: Growth inhibition of human HL-60(TB) cells assessed as cell growth at 5X10'-6 M after 48 hrs by sulforhodamine B assay; conditions: HL-60, 48 h, read-out: Activity
[7] = system: SK-MEL-5; assay: Growth inhibition of human SK-MEL-5 cells assessed as cell growth at 5X10'-7 M after 48 hrs by sulforhodamine B assay; conditions: SK-MEL-5, 48 h, read-out: Activity
[8] = system: SN12C; assay: Growth inhibition of human SN12C cells assessed as cell growth at 5X10'-9 M after 48 hrs by sulforhodamine B assay; conditions: read-out: Activity
[9] = system: DU-145; assay: Growth inhibition of human DU145 cells assessed as cell growth at 5X10'-9 M after 48 hrs by sulforhodamine B assay; conditions: DU-145, 48 h, read-out: Activity
[10] = system: OVCAR-4; assay: Growth inhibition of human OVCAR4 cells assessed as cell growth at 5X10'-7 M after 48 hrs by sulforhodamine B assay; conditions: OVCAR-4, 48 h, read-out: Activity
[11] = system: BT-549; assay: Growth inhibition of human BT549 cells assessed as cell growth at 5X10'-5 M after 48 hrs by sulforhodamine B assay; conditions: BT-549, 48 h, read-out: Activity
[12] = system: SK-MEL-2; assay: Growth inhibition of human SK-MEL-2 cells assessed as cell growth at 5X10'-6 M after 48 hrs by sulforhodamine B assay; conditions: SK-MEL-2, 48 h, read-out: Activity
[13] = system: SNB-75; assay: Growth inhibition of human SNB75 cells assessed as cell growth at 5X10'-7 M after 48 hrs by sulforhodamine B assay; conditions: SNB-75, 48 h, read-out: Activity
[14] = system: SK-MEL-2; assay: Growth inhibition of human SK-MEL-2 cells assessed as cell growth at 5X10'-5 M after 48 hrs by sulforhodamine B assay; conditions: SK-MEL-2, 48 h, read-out: Activity
[15] = system: SR; assay: Growth inhibition of human SR cells assessed as cell growth at 5X10'-6 M after 48 hrs by sulforhodamine B assay; conditions: read-out: Activity
[16] = system: NCI-H460; assay: Growth inhibition of human NCI-H460 cells assessed as cell growth at 5X10'-9 M after 48 hrs by sulforhodamine B assay; conditions: NCI-H460, 48 h, read-out: Activity
[17] = system: HOP-62; assay: Growth inhibition of human HOP62 cells assessed as cell growth at 5X10'-8 M after 48 hrs by sulforhodamine B assay; conditions: HOP-62, 48 h, read-out: Activity
[18] = system: SN12C; assay: Growth inhibition of human SN12C cells assessed as cell growth at 5X10'-7 M after 48 hrs by sulforhodamine B assay; conditions: read-out: Activity
[19] = system: OVCAR-5; assay: Growth inhibition of human OVCAR5 cells assessed as cell growth at 5X10'-5 M after 48 hrs by sulforhodamine B assay; conditions: OVCAR-5, 48 h, read-out: Activity
[20] = system: LOX IMVI; assay: Growth inhibition of human LOXIMVI cells assessed as cell growth at 5X10'-5 M after 48 hrs by sulforhodamine B assay; conditions: read-out: Activity
[21] = system: NCI-H522; assay: Growth inhibition of human NCI-H522 cells assessed as cell growth at 5X10'-5 M after 48 hrs by sulforhodamine B assay; conditions: NCI-H522, 48 h, read-out: Activity
[22] = system: HCT-15; assay: Growth inhibition of human HCT15 cells assessed as cell growth at 5X10'-9 M after 48 hrs by sulforhodamine B assay; conditions: HCT-15, 48 h, read-out: Activity
[23] = system: A549; assay: Growth inhibition of human A549/ATCC cells assessed as cell growth at 5X10'-5 M after 48 hrs by sulforhodamine B assay; conditions: A549, 48 h, read-out: Activity
[24] = system: NCI-H23; assay: Growth inhibition of human NCI-H23 cells assessed as cell growth at 5X10'-7 M after 48 hrs by sulforhodamine B assay; conditions: NCI-H23, 48 h, read-out: Activity
[25] = system: HCT-15; assay: Growth inhibition of human HCT15 cells assessed as cell growth at 5X10'-8 M after 48 hrs by sulforhodamine B assay; conditions: HCT-15, 48 h, read-out: Activity
[26] = system: DU-145; assay: Growth inhibition of human DU145 cells assessed as cell growth at 5X10'-7 M after 48 hrs by sulforhodamine B assay; conditions: DU-145, 48 h, read-out: Activity
[27] = system: MOLT-4; assay: Growth inhibition of human MOLT4 cells assessed as cell growth at 5X10'-6 M after 48 hrs by sulforhodamine B assay; conditions: MOLT-4, 48 h, read-out: Activity
[28] = system: U-251; assay: Growth inhibition of human U251 cells assessed as cell growth at 5X10'-7 M after 48 hrs by sulforhodamine B assay; conditions: U-251, 48 h, read-out: Activity
[29] = system: OVCAR-3; assay: Growth inhibition of human OVCAR3 cells assessed as cell growth at 5X10'-9 M after 48 hrs by sulforhodamine B assay; conditions: OVCAR-3, 48 h, read-out: Activity
[30] = system: SN12C; assay: Growth inhibition of human SN12C cells assessed as cell growth at 5X10'-6 M after 48 hrs by sulforhodamine B assay; conditions: read-out: Activity
[31] = system: SK-MEL-28; assay: Growth inhibition of human SK-MEL-28 cells assessed as cell growth at 5X10'-6 M after 48 hrs by sulforhodamine B assay; conditions: SK-MEL-28, 48 h, read-out: Activity
[32] = system: OVCAR-4; assay: Growth inhibition of human OVCAR4 cells assessed as cell growth at 5X10'-9 M after 48 hrs by sulforhodamine B assay; conditions: OVCAR-4, 48 h, read-out: Activity
[33] = system: SNB-75; assay: Growth inhibition of human SNB75 cells assessed as cell growth at 5X10'-5 M after 48 hrs by sulforhodamine B assay; conditions: SNB-75, 48 h, read-out: Activity
[34] = system: MDA-MB-231; assay: Growth inhibition of human MDA-MB-231 cells assessed as cell growth at 5X10'-6 M after 48 hrs by sulforhodamine B assay; conditions: MDA-MB-231, 48 h, read-out: Activity
[35] = system: T47D; assay: Growth inhibition of human T47D cells assessed as cell growth at 5X10'-9 M after 48 hrs by sulforhodamine B assay; conditions: read-out: Activity
[36] = system: ACHN; assay: Growth inhibition of human ACHN cells assessed as cell growth at 5X10'-8 M after 48 hrs by sulforhodamine B assay; conditions: read-out: Activity
[37] = system: RXF 393; assay: Growth inhibition of human RXF393 cells assessed as cell growth at 5X10'-9 M after 48 hrs by sulforhodamine B assay; conditions: RXF 393, 48 h, read-out: Activity

COc1cc(-c2nn(-c3cccc(NC(=O)Nc4ccc(Cl)c(Cl)c4)c3)cc2-c2ccncc2)ccc1Cl
growth at 0.005 µM [1]: 97% | growth at 0.05 µM [2]: 107% | growth at 0.05 µM [3]: 101% | growth at 0.005 µM [4]: 100% | growth at 5 µM [5]: 3% | growth at 5 µM [6]: 6% | growth at 0.5 µM [7]: 78% | growth at 0.005 µM [8]: 94% | growth at 0.005 µM [9]: 103% | growth at 0.5 µM [10]: 81% | growth at 50 µM [11]: -3% | growth at 5 µM [12]: -52% | growth at 0.5 µM [13]: 74% | growth at 50 µM [14]: -59% | growth at 5 µM [15]: -26% | growth at 0.005 µM [16]: 102% | growth at 0.05 µM [17]: 97% | growth at 0.5 µM [18]: 82% | growth at 50 µM [19]: 15% | growth at 50 µM [20]: -45% | growth at 50 µM [21]: -26% | growth at 0.005 µM [22]: 95% | growth at 50 µM [23]: 3% | growth at 0.5 µM [24]: 91% | growth at 0.05 µM [25]: 95% | growth at 0.5 µM [26]: 90% | growth at 5 µM [27]: -4% | growth at 0.5 µM [28]: 72% | growth at 0.005 µM [29]: 104% | growth at 5 µM [30]: 14% | growth at 5 µM [31]: 1% | growth at 0.005 µM [32]: 96% | growth at 50 µM [33]: -15% | growth at 5 µM [34]: -47% | growth at 0.005 µM [35]: 97% | growth at 0.05 µM [36]: 98% | growth at 0.005 µM [37]: 97%
